Experimental data published in article PMC5430962, “Retro-inverso Urokinase Receptor Antagonists for the Treatment of Metastatic Sarcomas” (Scientific Reports, 2017).
[ ]: non-standard residue; d: D form. Aib = CC(C)(N)C(=O)O

Key:
HT1080 cells [1] = assay: HT1080 cell migration toward 10% FBS in Boyden chambers; type: cell-based, human; details: 10 nM peptide plus 10% FBS, 4 hr, means of three independent experiments in triplicate
Protocol: (§1) Cell migration in Boyden chambers was carried out for 4 hr at 37 °C in humidified air with 5% CO2, as described. Briefly, cell suspension (1 × 10^5 viable cells/mL serum free medium) was seeded in each upper chamber. Lower chambers were filled with DMEM alone, DMEM containing RI peptides, 10 nM fMLF, or 10% FBS with/without RI peptides. The two compartments were separated by 8 μm pore size polycarbonate filters (Neuroprobe) coated with 2.5 µg/mL vitronectin (Corning). For the invasion assays, 8 μm pore size filters were coated with 50 μg/filter matrigel (BD Biosciences) as previously described[40] and cells (3 × 10^4 viable cells/well) were allowed to invade matrigel for 6 hr at 37 °C, 5% CO2. In all cases, at the end of the assay, cells on the lower filter surface were fixed with ethanol, stained with haematoxylin and 10 random fields/filter were counted at 200× magnification. Each experiment was performed three times in triplicate.

FPR1 = biological target: T1, FPR1 (Homo sapiens, UniProt P21462); assay: Agonist-dependent FPR1 internalization, fluorescence microscopy in RBL-2H3/ETFR cells; type: cell-based; details: 100 nM peptide 30 min at 37 °C, then 10 nM FITC-fMLF 30 min at 37 °C; confocal microscopy
T1 construct: expressed in transfected cells; host or cells: rat basophilic leukaemia RBL-2H3/ETFR cells (gift of F. Blasi)
T1 sequence (P21462 1-350): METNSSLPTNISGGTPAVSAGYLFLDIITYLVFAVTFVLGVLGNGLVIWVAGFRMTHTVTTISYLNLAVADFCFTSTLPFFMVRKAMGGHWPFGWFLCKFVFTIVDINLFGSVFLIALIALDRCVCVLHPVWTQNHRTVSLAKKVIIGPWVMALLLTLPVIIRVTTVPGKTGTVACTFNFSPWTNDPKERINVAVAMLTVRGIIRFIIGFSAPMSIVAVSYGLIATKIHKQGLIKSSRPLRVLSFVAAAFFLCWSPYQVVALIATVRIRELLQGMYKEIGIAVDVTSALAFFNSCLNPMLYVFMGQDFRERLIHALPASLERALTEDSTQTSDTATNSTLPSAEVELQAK
Protocol: Cells grown on glass slides to semi-confluence were exposed to diluents or the indicated unlabeled peptides for 30 min at 37 °C, then to 10 nM FITC-fMLF in PBS for additional 30 min at 37 °C and extensively rinsed with PBS. To visualize the cytoskeleton, the cells were fixed with 2.5% formaldehyde, permeabilized with 0.1% Triton X-100 for 10 min at 4 °C, and incubated with 0.1 µg/mL rhodamine-conjugated phalloidin (Sigma-Aldrich) for 40 min. In all cases, coverslips were mounted using 20% (w/v) Mowiol, visualized with a Zeiss 510META-LSM microscope (Carl Zeiss), and z-series were collected at 0.20 µm intervals.

HT1080 cells [2] = assay: HT1080 matrigel invasion toward 10% FBS in Boyden chambers; type: cell-based, human; details: 10 nM peptide plus 10% FBS, 6 hr, means of three independent experiments in triplicate
Protocol: as §1

[3] = Stability in human serum, read out as retained inhibition of HT1080 matrigel invasion; type: in vitro ADME; details: pre-incubated at 10^−3 M in human serum 18 hr at 37 °C; tested at 10 nM on HT1080 matrigel invasion, Boyden chambers, 6 hr; three experiments in triplicate
Protocol: A major limitation of peptides for use as therapeutics is susceptibility to degradation by serum proteases. The stability of RI-3 in bovine and human serum was investigated by comparing inhibitory activities of RI-3 and RI-3 pre-incubated at 10^−3 M with serum for 18 hr at 37 °C on cell migration and invasion. HT1080 cells were allowed to migrate for 18 hr toward DMEM (CTRL), 10% FBS (None), 10% FBS plus 10 nM RI-3 or 10% FBS with 10 nM RI-3 pre-incubated in bovine serum. […] The stability of RI-3 in human serum was investigated in cell invasion experiments performed in Boyden chambers. […]
(a) HT1080 cells were allowed to migrate in real time for 18 hr toward DMEM (CTRL), or 10% FBS in the absence (None) or the presence of 10 nM RI-3 or 10 nM RI-3 pre-incubated at 10^−3 M in bovine serum for 18 hr at 37 °C. […] The basal value assessed in the absence of FBS (CTRL) was taken as 100% and all values were reported relative to that. Data are the means ± SD three independent experiments, performed in triplicate. *Indicates statistical significance calculated against None, with *P < 0.05, **P < 0.0001. (c) Cell proliferation of HT1080 cells assessed by MTS assay. […] At the indicated times, the absorbance of adherent cells was assessed with a microplate reader. […]

With “Ac-[dY][dR][Aib][dR]-NH2 (SMILES CC(=O)N[C@H](Cc1ccc(O)cc1)C(=O)N[C@H](CCCNC(=N)N)C(=O)NC(C)(C)C(=O)N[C@H](CCCNC(=N)N)C(N)=O) [RI-3]” the “reduction of FBS-directed cell migration” value (HT1080 cells [1]) was 57%, the “effect on agonist-dependent FPR1 internalization” value (FPR1) was “paucity of FPR1 internalization” and the “reduction of the extent of cell invasion (matrigel)” value (HT1080 cells [2]) was 51%. The “inhibitory activity retained after pre-incubation with human serum” value [3] was 81%.
